From ChEMBL document CHEMBL5233273, “An overview of hydroxypyranone and hydroxypyridinone as privileged scaffolds for novel drug discovery” (Eur J Med Chem, 2021)
pIC50: −log10 of the molar value. Values after ≈ are worked out from the molar mass of the structure shown.

Experiments:
[1] = Antiinflammatory activity in macrophages assessed as reduction in LPS-induced NO production; type: functional, cell-based; settings: Macrophage
[2] = target: Amine oxidase [flavin-containing] B (Homo sapiens, UniProt P27338); assay: Inhibition of human MAO-B
Sequence of Amine oxidase [flavin-containing] B (P27338 whole entry): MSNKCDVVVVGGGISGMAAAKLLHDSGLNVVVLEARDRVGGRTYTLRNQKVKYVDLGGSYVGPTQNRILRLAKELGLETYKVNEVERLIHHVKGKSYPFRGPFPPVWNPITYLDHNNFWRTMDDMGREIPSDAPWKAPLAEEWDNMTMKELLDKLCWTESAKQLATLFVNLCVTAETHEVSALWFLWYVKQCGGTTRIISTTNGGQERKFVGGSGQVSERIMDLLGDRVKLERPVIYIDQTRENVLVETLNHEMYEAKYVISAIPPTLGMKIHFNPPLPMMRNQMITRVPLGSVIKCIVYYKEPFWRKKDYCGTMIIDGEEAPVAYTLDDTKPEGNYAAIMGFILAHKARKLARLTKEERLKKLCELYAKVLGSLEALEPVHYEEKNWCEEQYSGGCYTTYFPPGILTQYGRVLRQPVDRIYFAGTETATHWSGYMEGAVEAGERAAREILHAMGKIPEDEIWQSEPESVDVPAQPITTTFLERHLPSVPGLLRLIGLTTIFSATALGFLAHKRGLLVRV

[3] = test system: Staphylococcus aureus; assay: Antibacterial activity against Staphylococcus aureus assessed as zone of inhibition; type: functional
[4] = test system: Bacillus subtilis; assay: Antibacterial activity against Bacillus subtilis assessed as zone of inhibition; type: functional
[5] = test system: A549; assay: Cytotoxicity against human A549 cells; type: functional, cell-based
[6] = test system: MCF7; assay: Cytotoxicity against human MCF7 cells; type: functional, cell-based
[7] = test system: HeLa; assay: Cytotoxicity against human HeLa cells; type: functional, cell-based
[8] = test system: DU-145; assay: Cytotoxicity against human DU-145 cells; type: functional, cell-based
[9] = test system: Staphylococcus aureus; assay: Antibacterial activity against Staphylococcus aureus; type: functional
[10] = test system: Escherichia coli; assay: Antibacterial activity against Escherichia coli; type: functional
[11] = test system: Pichia kudriavzevii; assay: Antifungal activity against Candida krusei ATCC 6258; type: functional
[12] = test system: Enterococcus faecalis; assay: Antibacterial activity against Enterococcus faecalis; type: functional
[13] = test system: Pseudomonas aeruginosa; assay: Antibacterial activity against Pseudomonas aeruginosa ATCC 10145; type: functional
[14] = test system: Proteus mirabilis; assay: Antibacterial activity against Proteus mirabilis ATCC 7002; type: functional
[15] = test system: Klebsiella pneumoniae; assay: Antibacterial activity against Klebsiella pneumoniae RSKK 574; type: functional
[16] = test system: Mycobacterium tuberculosis; assay: Antitubercular activity against Mycobacterium tuberculosis H37Rv ATCC 27294; type: functional
[17] = test system: Candida tropicalis; assay: Antifungal activity against Candida tropicalis ATCC 13803; type: functional
[18] = test system: Escherichia coli; assay: Antibacterial activity against Escherichia coli ATCC 35218; type: functional
[19] = test system: Candida parapsilosis; assay: Antifungal activity against […]; type: functional; settings: Lodderomyces parapsilosis
[20] = test system: Mycobacterium avium; assay: Antitubercular activity against Mycobacterium avium ATCC 15769; type: functional
[21] = test system: Candida albicans; assay: Antifungal activity against Candida albicans ATCC10231; type: functional
[22] = test system: Acinetobacter baumannii; assay: Antibacterial activity against Acinetobacter baumannii i RSKK 02026; type: functional
[23] = test system: Aspergillus niger; assay: Antifungal activity against Aspergillus niger; type: functional
[24] = test system: Saccharomyces cerevisiae; assay: Antifungal activity against Saccharomyces cerevisiae; type: functional
[25] = test system: Bacillus subtilis; assay: Antibacterial activity against Bacillus subtilis ATCC 6633; type: functional
[26] = test system: Enterococcus faecalis; assay: Antibacterial activity against Enterococcus faecalis ATCC 29212; type: functional
[27] = test system: Staphylococcus aureus; assay: Antibacterial activity against Staphylococcus aureus ATCC 25923; type: functional

With O=c1cc(CSc2ccc(Cl)cc2)occ1O as the compound, how does the pIC50 [1] read?
Its pIC50 is 4.62.

With CCc1c(O)c(=O)cc(C)n1CCCn1cc(COc2ccc3ccc(=O)oc3c2)nn1 as the compound, how does the pIC50 [2] read?
The pIC50 was 6.17.

What does the source list for N#CC(C(=O)c1c[nH]c2ccccc12)C(c1ccc(Cl)cc1)c1oc(CO)cc(=O)c1O (configuration not stated)?
inhibition zone (IZ) [3]: 22 mm; inhibition zone (IZ) [4]: 19.5 mm

With CC(C)(C)[Si](C)(C)OCc1cc(=O)c(O)c(C(C[N+](=O)[O-])c2ccc(Cl)cc2)o1 (configuration not stated) as the compound, how does the pIC50 [5] read?
Its pIC50 is 4.74.

And the pIC50 [6]?
The pIC50 was 4.74.

And the pIC50 [7]?
The pIC50 was 4.96.

What about the pIC50 [8] of the same compound?
The pIC50 was 4.80.

For Cc1cc(=O)c(O)c(C(=O)Nc2ccc3c(C)cc(=O)oc3c2)o1, which MIC [9] is on record?
The MIC was 8 µg/mL (≈ 24.4 µM).

And the MIC [10]?
The MIC was 8 µg/mL (≈ 24.4 µM).

What about the MIC [11] of the same compound?
The MIC was 4 µg/mL (≈ 12.2 µM).

And the MIC [12]?
Its MIC is 8 µg/mL (≈ 24.4 µM).

For O=c1cc(CCl)oc(CN2CCN(c3ccccc3)CC2)c1O, which MIC [13] is on record?
Its MIC is 8 µg/mL (≈ 23.9 µM).

And the MIC [14]?
The MIC was 8 µg/mL (≈ 23.9 µM).

What about the MIC [11] of the same compound?
The MIC was 8 µg/mL (≈ 23.9 µM).

And the MIC [15]?
The MIC was 8 µg/mL (≈ 23.9 µM).

And the MIC [16]?
The MIC was 4 µg/mL (≈ 11.9 µM).

And the MIC [17]?
Its MIC is 8 µg/mL (≈ 23.9 µM).

And the MIC [18]?
Its MIC is 8 µg/mL (≈ 23.9 µM).

What about the MIC [19] of the same compound?
Its MIC is 8 µg/mL (≈ 23.9 µM).

And the MIC [20]?
Its MIC is 4 µg/mL (≈ 11.9 µM).

What about the MIC [21] of the same compound?
Its MIC is 8 µg/mL (≈ 23.9 µM).

And the MIC [22]?
Its MIC is 8 µg/mL (≈ 23.9 µM).

With CO[C@@H]1O[C@H](COCc2cc(=O)c(O)co2)[C@@H](C)[C@H](OCc2cc(=O)c(O)co2)[C@H]1N as the compound, how does the MIC [9] read?
Its MIC is 1040 µg/mL (≈ 2370 µM).

What about the MIC [10] of the same compound?
Its MIC is 1040 µg/mL (≈ 2370 µM).

What about the MIC [23] of the same compound?
Its MIC is 1040 µg/mL (≈ 2370 µM).

What about the MIC [24] of the same compound?
Its MIC is 1040 µg/mL (≈ 2370 µM).

What does the source list for O=c1cc(CCl)oc(CN2CCN(Cc3ccc(C(F)(F)F)cc3)CC2)c1O?
MIC [13]: 8 µg/mL (≈ 19.2 µM); MIC [25]: 4 µg/mL (≈ 9.6 µM); MIC [14]: 8 µg/mL (≈ 19.2 µM); MIC [26]: 4 µg/mL (≈ 9.6 µM); MIC [15]: 8 µg/mL (≈ 19.2 µM); MIC [27]: 4 µg/mL (≈ 9.6 µM); MIC [16]: 4 µg/mL (≈ 9.6 µM); MIC [18]: 8 µg/mL (≈ 19.2 µM); MIC [20]: 4 µg/mL (≈ 9.6 µM); MIC [22]: 8 µg/mL (≈ 19.2 µM)
